Assay results: patent publication US11712473B2, “Sensitizer-peptide conjugate” (UNIVERSITY OF ULSTER, priority 2017, dated 2023)
“Also recorded” adds a separate entry of the source. RB = Rose Bengal carboxylic acid derivative, attached to the N-terminus

Experiments:
[1] = system: B16-F10-Luc2 melanoma tumour; test: PDT and SDT treatment of ectopic B16 melanoma tumours in SCID mice (Example 6); type: in vivo; conditions: 100 μL of 100 μM by tail vein injection
Procedure: B16-F10-Luc2 cells (3×10^5) maintained as described in Example 3, were re-suspended in 100 μL of PBS and implanted into the rear dorsum of SCID mice. Four days after implantation tumour measurements were taken using calipers and tumour volume calculated from the geometric mean diameter using the equation: tumour volume=4πR^3/3. The animals were then randomly distributed into […] (n=5): Group 1 involved untreated animals; Group 2 treated with the RB-(KLAKLAK)2 (SEQ ID NO. 1) conjugate and no light; Group 3 treated with the RB-(KLAKLAK)2 (SEQ ID NO. 1) conjugate and light; Group 4 treated with the RB-(KLAKLAK)2 (SEQ ID NO. 1) conjugate and SDT, and Group 5 treated with RB and light. Following induction of anaesthesia (intraperitoneal injection of Hypnorm/Hypnovel), a 100 μL aliquot of PBS containing 100 μM RB or the RB-(KLAKLAK)2 (SEQ ID NO. 1) conjugate was administered by tail vein injection. Group 3 and Group 5: 30 minutes later tumours were exposed to white light for 3 min (68.4 J/cm^−2). […] After treatment, animals were allowed to recover from anaesthesia and tumour volume was monitored for 12 days with animals retreated using the same conditions on days 1, 2, 7 and 9. The % increase in tumour volume was calculated employing the pre-treatment measurements for each group. […]

[2] = system: B16-F10-Luc2 melanoma tumour; test: PDT of B16 melanoma tumour growth in a mouse model (Example 5); type: in vivo, SCID mice; conditions: for tumour growth / tumour size, as part of PDT: 100 μL of 100 μM by tail vein injection, white light 3 min (68.4 J/cm^-2) 30 minutes later, retreated days 1, 2, 7, 9
Procedure: In these studies all animals were treated humanely and in accordance with licensed procedures under the UK Animals (Scientific Procedures) Act 1986. B16-F10-Luc2 cells (3×10^5) maintained as described in Example 3, were re-suspended in 100 μL of PBS and implanted into the rear dorsum of SCID mice. Four days after implantation tumour measurements were taken using calipers and tumour volume calculated from the geometric mean diameter using the equation: tumour volume=4πR^3/3. The animals were then randomly distributed into four groups (n=5): Group 1 involved untreated animals; Group 2 treated with the RB-(KLAKLAK)2 (SEQ ID NO. 1) conjugate and no light; Group 3 treated with the RB-(KLAKLAK)2 (SEQ ID NO. 1) conjugate and light; Group 4 treated with RB and light. Following induction of anaesthesia (intraperitoneal injection of Hypnorm/Hypnovel), a 100 μL aliquot of PBS containing 100 μM RB or the RB-(KLAKLAK)2 (SEQ ID NO. 1) conjugate was administered by tail vein injection. Group 3 and Group 4: 30 minutes later tumours were exposed to white light for 3 min (68.4 J/cm^−2). After treatment, animals were allowed to recover from anaesthesia and tumour volume was monitored for 12 days with animals retreated using the same conditions on days 1, 2, 7 and 9. The % increase in tumour volume was calculated employing the pre-treatment measurements for each group. On day 13, the animals were euthanized and the tumours were removed for analysis.

[3] = system: MCF-7 invasive breast ductal carcinoma cells; test: PDT of MCF-7 breast cancer cells, MTT cell viability assay; type: cell-based, Human; conditions: 0.05, 0.1, 0.5, 1 μM, 3 h incubation, white light 1 min (22.8 J/cm^2), viability 24 h later
Procedure: (§1) Human MCF-7 invasive breast ductal carcinoma cells were maintained Dulbecco's Modified Eagle Media (DMEM) supplemented with 10% foetal bovine serum (FBS) and 1% penicillin streptomycin. The cells were incubated at 37° C. in a humidified 5% (v/v) CO2 atmosphere. Cells were seeded at a concentration of 5×10^3 cells per well in 96-well tissue culture plate for 24 hours. The medium was removed from each well and the cells incubated for 3 h with drug (100 μL) at concentrations of 0.05 μM, 0.1 μM, 0.5 μM and 1 μM in media. The drug solution was then removed and the cells washed twice with PBS, fresh media was added and selected wells exposed to white light for 1 min (22.8 J/cm^2). Fresh media was then added to each of the wells and cell viability determined 24 h later using a MTT assay. Each experiment was repeated on 3 separate occasions with an n=6 on each occasion.

[4] = system: B16-F10-Luc2 melanoma cells; test: PDT of B16 melanoma cells, MTT cell viability assay; type: cell-based, murine; conditions: 2.5, 5.0, 10 μM, 3 h incubation, white light 1 min (22.8 J/cm^2), viability 24 h later
Procedure: (§2) Murine melanoma B16-F10 Luc-2 cells were maintained Dulbecco's Modified Eagle Media (DMEM) supplemented with 10% foetal bovine serum (FBS) and 1% penicillin streptomycin. The cells were incubated at 37° C. in a humidified 5% (v/v) CO2 atmosphere. Cells were seeded at a concentration of 4×10^3 cells per well in 96-well tissue culture plate for 24 hours. The medium was removed from each well and the cells incubated for 3 h with drug (100 μL) at concentrations of 2.5 μM, 5.0 μM and 10 μM in media. The drug solution was then removed and selected wells exposed to white light for 1 min (22.8 J/cm^2). Fresh media was then added to each of the wells and cell viability determined 24 h later using a MTT assay. Each experiment was repeated on 3 separate occasions with an n=6 on each occasion.

[5] = system: PANC-1 epithelioid carcinoma cells; test: PDT of PANC-1 pancreatic cancer cells, MTT cell viability assay; type: cell-based, Human; conditions: 0.05, 0.1, 0.5, 1 μM, 3 h incubation, white light 1 min (22.8 J/cm^2), viability 24 h later
Procedure: as §1, with “PANC-1 epithelioid” for “MCF-7 invasive breast ductal”

[6] = system: B16-F10-Luc2 melanoma cells; test: PDT of B16 melanoma cells, bioluminescent assay; type: cell-based, murine; conditions: 2.5, 5.0, 10 μM plus white light (22.8 J/cm^2)
Procedure: as §2
For the bioluminescent assay, imaging was undertaken using a Xenogen IVIS-100 bioluminescence/fluorescence optical imaging system. Treatments were performed as described above. D-Luciferin at 1.5% w/w was then added to treated wells and bioluminescence intensity was quantified 5 min later using the IVIS-100 system and Living Image Software as per protocol (Caliper LifeSciences). Regions of interest (RoI) were drawn around the wells to evaluate the intensity of signal emitted and expressed photons/second (p/s).

[7] = system: B16-F10-Luc2 melanoma cells; test: SDT of B16 melanoma cells, MTT cell viability assay; type: cell-based, murine; conditions: 2.5, 5.0, 10 μM, 3 hours incubation, ultrasound, viability 24 hours later

Substance | tumour growth, as part of SDT ([1]; ultrasound 3.5 min, 3 W cm-2, 1 MHz, duty cycle 30%) | tumour growth, as part of PDT ([1]; white light 3 min (68.4 J/cm^-2) 30 minutes later) | tumour growth / tumour size, as part of PDT [2] | tumour growth / tumour size, as part of PDT ([2]; listed as conjugate of Rose Bengal and a peptide having the amino acid sequence defined by) | tumour growth, as part of SDT ([2]; as stated in the result sentence of Example 5) | cell viability (MTT), cell killing as part of PDT [3] | cell viability (MTT), cytotoxic effect as part of PDT [4] | cell viability (MTT), cytotoxic effect as part of PDT ([4]; listed as RB-C(KLAKLAK)2 L enantiomer) | cell viability (MTT), cell killing as part of PDT [5] | bioluminescent intensity relative to the control [6] | cell viability (MTT), cell killing as part of SDT [7]
RB-(KLAKLAK)2: conjugate of Rose Bengal and all-D peptide Lys-Leu-Ala-Lys-Leu-Ala-Lys-Lys-Leu-Ala-Lys-Leu-Ala-Lys (SEQ ID NO: 1), no cysteine (KLAKLAKKLAKLAK; not fully specified; Rose Bengal conjugate; all-D amino acids) | effectively reduced B16-F10-Luc2 melanoma tumour growth | effectively reduced B16-F10-Luc2 melanoma tumour growth; also recorded: PDT was superior | – | – | – | – | – | – | – | – | –
RB-C(KLAKLAK)2: conjugate of Rose Bengal and peptide Cys-Lys-Leu-Ala-Lys-Leu-Ala-Lys-Lys-Leu-Ala-Lys-Leu-Ala-Lys (SEQ ID NO: 2) ({RB}-CKLAKLAKKLAKLAK-NH2; also: Rose Bengal conjugate, site not given here) | – | – | effectively reduced B16-F10-Luc2 melanoma tumour growth; also recorded: inhibited tumour growth to a greater extent | significant reduction in tumour size | effectively reduced B16-F10-Luc2 melanoma tumour growth | effectively killed MCF-7 invasive breast ductal carcinoma cells | significantly better than photodynamic therapy using Rose Bengal alone; also recorded: effectively killed B16-F10-Luc2 melanoma cells | more potent cytotoxic effect than the RB-C(KLAKLAK)2 (SEQ ID NO. 2) D enantiomer | effectively killed PANC-1 epithelioid carcinoma cells | significant reduction in bioluminescence | effectively killed B16-F10-Luc2 melanoma cells
RB-C(KLAKLAK): conjugate of Rose Bengal and peptide Cys-Lys-Leu-Ala-Lys-Leu-Ala-Lys (SEQ ID NO: 6) ({RB}-CKLAKLAK-NH2; not fully specified) | – | – | – | – | – | effectively killed MCF-7 invasive breast ductal carcinoma cells | – | – | effectively killed PANC-1 epithelioid carcinoma cells | – | –
